Laboratory results from US20060134073A1, “Compositions and methods for ex vivo preservation of blood vessels for vascular grafts using analogues of cAMP and cGMP” (priority 2004, published 2006).
Values joined by “and” are separate entries in the source; they are usually repeats but may differ in a detail not shown here. Identical values can stand only once.

Assays:
[1] = system: jugular vein patch graft (neointimal hyperplasia); assay: murine autologous arterialized vein patch model: neointimal expansion of vein grafts; type: in vivo, C57BL/6J mice; settings: vein patch preserved 2 hours at 25° C. in heparinized saline with additive (db-cAMP 2 mmol/L; 8-Br-cAMP 0.1 mmol/L; Rp-cAMPS 0.25 mmol/L), harvested postoperative day 21; mean ±SEM
[2] = system: macrophages on the intima of porcine venous graft; assay: porcine vein graft model: macrophages on/in intima (anti-macrophage immunoperoxidase); type: in vivo; settings: for A.Average Number of Macrophages on/in Intima* (400X objective) MAC-1 Staining, Left IJV Experimental: graft incubated 60 minutes in test solution before implantation, one animal per line
Method: (§1) 6.4 The following experiments were performed to determine the ability of various compounds to preserve vein grafts before implantation in a porcine vein graft model. Briefly, the vein grafts were excised from the pig, incubated in solutions containing the various test compounds, implanted back into the pig and excised after a set period of days. The excised veins were then examined for a variety of factors to determine the protective effect of the various compounds.
Anti-macrophage antibody: An indirect immunoperoxidase procedure was performed. Slides were treated with Declere antigen retrieval solution for 15 minutes followed by one rinse in phosphate-buffered saline (PBS) ([0.15M NaCl, pH 7.2]+0.05% Tween 20). Endogenous peroxidase activity was quenched by incubation with the peroxidase solution supplied in the Dako EnVision+ kit followed by two rinses in PBS (0.15M NaCl, pH 7.2)+0.05% Tween 20. The slides were then incubated for 20 minutes in a nonspecific protein block solution comprising 1% BSA and 1.5% normal goat serum in PBS (0.15M NaCl, pH 7.2)+0.05% Tween 20 followed by incubation with primary antibody for 1 hour. After two PBS (0.15M NaCl, pH 7.2)+0.05% Tween 20 rinses, the slides were treated with the Dako EnVision+ peroxidase labeled polymer for 30 minutes. The slides were rinsed twice with PBS (0.15M NaCl, pH 7.2)+0.05% Tween 20 and treated with Dako substrate-chromogen solution for 8 minutes. The slides were then rinsed in tap water, counterstained with hematoxylin, and blued with lithium chloride. Finally, the slides were dehydrated in increasing concentrations of alcohol, cleared with xylene, and mounted for interpretation. PBS (0.15M NaCl, pH 7.2)+0.05% Tween 20+1% BSA served as the diluent for all antibodies. All rinses were performed with PBS (0.15M NaCl, pH 7.2) supplemented with 0.05% Tween 20.
For the anti-macrophage antibody, all slides were judged for adequacy of tissue elements and staining and read blind by the Study Pathologist to quantify the number of macrophages on the intima of the porcine venous graft tissues. The quantification was performed by counting at 400× the number of positively stained macrophages in and on the intima of each section of venous graft tissue in 10 fields and then taking the average number of macrophages per field for each section. A mean score among the four venous graft sections for each test group was calculated.
(§2) This study tested the ability of a variety of preservation solutions to retard chronic intimal hyperplasia and protect vein grafts from restenosis and obstruction in a porcine interpositional graft model. The markers of inflammation of interest in this study were CD31 (PECAM-1), CD54 (ICAM-1), and macrophages (L1 or Calprotectin) in formalin-fixed, paraffin-embedded porcine venous graft tissues. Specifically, a porcine internal jugular vein was end to side anastamosed to the ipsilateral carotid artery, following 60 minutes of incubation in heparinized saline (negative control), Phorbol Myristate Acetate (PMA) as positive control, or experimental solutions. In addition to the detection of macrophages with either L1 or Calprotectin antibodies, anti-CD31 was used to detect endothelial cells, and Movat's Trichrome stain, together with biomorphometry was used to measure the percent of intimal expansion. For detection of CD31, an anti-CD31 antibody was applied to formalin-fixed, paraffin-embedded porcine spleen at one dilution (1:50). This dilution of anti-CD-31 antibody had strong to intense staining of splenic endothelium (positive control material). In order to detect CD54, mouse antihuman CD54 antibody was applied at one concentration (50 μg/mL) to ICAM-1/CD54 ultraviolet light (UV) activated resin spot slides. There was strong to intense staining of the ICAM-1/CD54 UV activated resin spot slides with 50 μg/mL of anti-CD54 antibody. […]

[3] = system: endothelium (CD31) of porcine venous graft; assay: porcine vein graft model: endothelialization score (CD31 staining); type: in vivo; settings: for B.Endothelialization Score CD31 Staining, Left IJV Experimental: mean score on 0-5 scale, graft incubated 60 minutes in test solution before implantation, one animal per line; for endothelialization of treated venous graft compared to control contralateral venous graft: in words, based on slightly higher endothelialization scores
Method: as §1
Anti-CD31 antibody: An indirect immunoperoxidase procedure was performed. Slides were treated with Declere antigen retrieval solution for 15 minutes followed by two rinses in phosphate-buffered saline (PBS [0.15M NaCl, pH 7.2]+0.05% Tween 20). The slides were then treated with 3% hydrogen peroxide to block endogenous peroxidase activity. After two PBS (0.15M NaCl, pH 7.2)+0.05% Tween 20 rinses, the slides were incubated for 20 minutes in a nonspecific protein block comprising 1% BSA, 1.5% normal horse serum, and 5% milk in PBS (0.15M NaCl, pH 7.2)+0.05% Tween 20. The slides were then incubated with primary antibody for 2 hours at 37° C. followed by two PBS (0.15M NaCl, pH 7.2)+0.05% Tween 20 rinses. The biotinylated secondary antibody was then added and incubated for 30 minutes. After two rinses in PBS (0.15M NaCl, pH 7.2)+0.05% Tween 20, the slides were treated with ABC reagent for 30 minutes followed by two PBS (0.15M NaCl, pH 7.2)+0.05% Tween 20 rinses. The slides were incubated with stable DAB substrate for 6 minutes, rinsed in tap water, counterstained with hematoxylin, and blued with lithium chloride. Finally, all slides were dehydrated in increasing concentrations of alcohol, cleared with xylene, and mounted for interpretation. PBS (0.15M NaCl, pH 7.2)+0.05% Tween 20+1% BSA served as the diluent for the primary antibody and ABC reagent. The diluent for the secondary antibody also contained 1% milk. All rinses were performed with PBS (0.15M NaCl, pH 7.2) supplemented with 0.05% Tween 20.
For the anti-CD31 antibody, all slides were judged for adequacy of tissue elements and staining and read blind by the Study Pathologist to quantify the degree of endothelialization of each section of venous graft tissue using the following scale: 0=no endothelialization, 1=less than 25% endothelialization, 2=25-50% endothelialization, 3=51-75% endothelialization, 4=greater than 75% endothelialization, 5=complete endothelialization. A mean score among the four venous graft sections for each test group was calculated.
as §2

[4] = system: porcine venous graft (intimal hyperplasia); assay: porcine vein graft model: % neointimal expansion (histomorphometry, Movat's stain); type: in vivo; settings: for C.% Neointimal Expansion Movat's Trichrome [100 * (neointima area/neointima area + lumen area], Left IJV Experimental: graft incubated 60 minutes in test solution before implantation, one animal per line; for % neointimal expansion (% NE) compared to contralateral venous graft and heparinized saline negative control: in words
Method: as §1
All slides were also stained with hematoxylin and eosin (H&E) and Movat's Pentachrome stains in preparation for histomorphometry. Calculations based on morphometry measurements were made using Microsoft Excel® software. For histomorphometry, neointimal area, luminal area, and percentage of neointimal expansion (100×[neointimal area/neointimal area+luminal area) was calculated for each venous graft section and the mean for each vessel were calculated.
This study tested the ability of a variety of preservation solutions to retard chronic intimal hyperplasia and protect vein grafts from restenosis and obstruction in a porcine interpositional graft model. The markers of inflammation of interest in this study were CD31 (PECAM-1), CD54 (ICAM-1), and macrophages (L1 or Calprotectin) in formalin-fixed, paraffin-embedded porcine venous graft tissues. Specifically, a porcine internal jugular vein was end to side anastamosed to the ipsilateral carotid artery, following 60 minutes of incubation in heparinized saline (negative control), Phorbol Myristate Acetate (PMA) as positive control, or experimental solutions. In addition to the detection of macrophages with either L1 or Calprotectin antibodies, anti-CD31 was used to detect endothelial cells, and Movat's Trichrome stain, together with biomorphometry was used to measure the percent of intimal expansion. For detection of CD31, an anti-CD31 antibody was applied to formalin-fixed, paraffin-embedded porcine spleen at one dilution (1:50). This dilution of anti-CD-31 antibody had strong to intense staining of splenic endothelium (positive control material). In order to detect CD54, mouse antihuman CD54 antibody was applied at one concentration (50 μg/mL) to ICAM-1/CD54 ultraviolet light (UV) activated resin spot slides. There was strong to intense staining of the ICAM-1/CD54 UV activated resin spot slides with 50 μg/mL of anti-CD54 antibody. The detection of macrophages was performed by the application of one concentration (2 μg/mL) of mouse anti-human macrophages antibody to formalin-fixed, paraffin embedded porcine spleen. There was moderate staining of macrophages with 2 μg/mL of anti-macrophages antibody. […] All slides were also stained with hematoxylin and eosin (H&E) and Movat's Pentachrome stains in preparation for histomorphometry.

porcine venous graft = assay: porcine vein graft model: graft occlusion at explant; type: in vivo; parameters: key: SO = substantially occluded; settings: graft incubated 60 minutes in test solution before implantation; one animal per line
Method: as §1
This study tested the ability of a variety of preservation solutions to retard chronic intimal hyperplasia and protect vein grafts from restenosis and obstruction in a porcine interpositional graft model. The markers of inflammation of interest in this study were CD31 (PECAM-1), CD54 (ICAM-1), and macrophages (L1 or Calprotectin) in formalin-fixed, paraffin-embedded porcine venous graft tissues. Specifically, a porcine internal jugular vein was end to side anastamosed to the ipsilateral carotid artery, following 60 minutes of incubation in heparinized saline (negative control), Phorbol Myristate Acetate (PMA) as positive control, or experimental solutions. In addition to the detection of macrophages with either L1 or Calprotectin antibodies, anti-CD31 was used to detect endothelial cells, and Movat's Trichrome stain, together with biomorphometry was used to measure the percent of intimal expansion. […]

[5] = system: MAC-1+ leukocytes adhering to the endothelium of the vein patch; assay: en face immunofluorescence: MAC-1+ leukocyte adhesion to vein patch; type: in vivo, C57BL/6J mice; settings: 2 hours of preservation with db-cAMP vs without additive; 24 hours after operation; P<0.05
endothelial cells = settings: stated as known; cited from earlier work

Row | Molecule | neointimal expansion [1] | A.Average Number of Macrophages on/in Intima* (400X objective) MAC-1 Staining, Left IJV Experimental [2] | B.Endothelialization Score CD31 Staining, Left IJV Experimental [3] | C.% Neointimal Expansion Movat's Trichrome [100 * (neointima area/neointima area + lumen area], Left IJV Experimental [4] | % neointimal expansion (% NE) compared to contralateral venous graft and heparinized saline negative control [4] | endothelialization of treated venous graft compared to control contralateral venous graft [3] | graft status printed in place of a value (Left IJV Experimental) (porcine venous graft) | MAC-1+ cells adhered to the surface of vein patch [5] | macrophage scores of treated venous graft compared to contralateral venous graft ([2]; in words) | db cAMP concentrations that become toxic to endothelial cells (endothelial cells)
1 | Nc1ncnc2c1nc(Br)n2[C@@H]1O[C@@H]2COP(=O)(O)O[C@H]2[C@H]1O [8-Br-cAMP, 8-bromo-adenosine 3′,5′-cyclic monophosphate] | 44.3%±5.0% |  |  |  |  |  |  |  |  | 
2 | Lipopolysaccaride |  | 1.575 | 4.75 | 77.7% |  |  |  |  |  | 
3 | CCCCCCCCCCCCCC(=O)O[C@@H]1[C@@H](C)[C@@]2(O)[C@@H](C=C(CO)C[C@]3(O)C(=O)C(C)=C[C@@H]23)[C@@H]2C(C)(C)[C@]12OC(C)=O [PMA, Phorbol Myristate Acetate] |  | 0 and 3.55 | 4.5 and 5 | 78.9% and 78.8% | slight increase |  |  |  |  | 
4 | Cc1[nH]c(=O)c(C#N)cc1-c1ccncc1 [Milrinone (PDSIII), Milrinone] |  | 0 | 5 | 70.4% |  | better endothelialization | SO |  |  | 
5 | Enbrel |  |  |  |  |  |  | SO |  |  | 
6 | CCCC(=O)Nc1ncnc2c1ncn2[C@@H]1O[C@@H]2COP(=O)(O)O[C@H]2[C@H]1OC(=O)CCC [db-cAMP, N^6,2′-O-dibutyryl adenosine 3′,5′-cyclic monophosphate] | 51.0%±4.7% | 0.025 | 5 | 55.6% | large and significant increase | better endothelialization |  | markedly decreased | decreases | higher than 4 mM
7 | O=C1CCC(N2C(=O)c3ccccc3C2=O)C(=O)N1 (centres unmarked) [Thalidomide] |  | 1.15 and 1.45 | 4.75 and 4.5 | 78.2% and 80.0% |  |  |  |  |  | 
